Laboratory results as given in patent US6998422B2, “Lipid peroxide-lowering compositions” (Sankyo Company, Limited, priority 2000, dated 2006).

Tested on: blood lipid peroxides
Test: Blood lipid peroxide levels in serum of beagle dogs after oral dosing for 11 days (Yagi's method, fluorometer)
Settings: relative ratio against averaged pre-dosing level (100), oral capsule once daily, pravastatin 2 mg/kg, mean of 5 dogs
Source text: Beagle dogs aged 5 months were purchased from Covance Research Products Inc. and used after 1 month of quarantine and acclimatisation breeding.
The required amounts of pravastatin or each component of the combination drug calculated from the body weight of each dog were weighed and filled in a gelatin capsule purchased from TORPAC Inc. Capsules filled with pravastatin were stocked in a refrigerator and those filled with combination drugs stocked at room temperature until use.
The combination drugs were filled in identical gelatin capsules.
Pravastatin or combination drug capsules were forcibly orally administered to each of the test animals once daily between 9:00 and 12:30. Animals were fasted for 2 or 3 hr prior to administration of the capsules.
The administration period was 11 successive days.
Blood (10 mL) was collected from the superficial radial vein 3 or 4 days prior to administration (−3 or −4 days in the first week prior to capsule administration) and 4 and 8 days after administration of the capsule. Animals were fasted for approximately 18 hr prior to blood collection. Collected blood was placed in a test tube and left at room temperature for 0.5–1 hr and centrifuged (3,000 rpm, for 10 min). The obtained serum was used for assays of blood lipid peroxides according to Yagi's methods.
A fluorometer (Hitachi, Ltd., F3000) was used for assay of the lipid peroxides.
The averaged value in each group was obtained from 5 animals a group.

SMILES: CC[C@H](C)C(=O)O[C@H]1C[C@H](O)C=C2C=C[C@H](C)[C@H](CC[C@@H](O)C[C@@H](O)CC(=O)O)[C@H]21 [Pravastatin alone, (+)-(3R,5R)-3,5-dihydroxy-7-[(1S,2S,6S,8S,8aR)-6-hydroxy-2-methyl-8-[(S)-2-methylbutyryloxy]-1,2,6,7,8,8a-hexahydro-1-naphthyl]heptanoate]
- Blood Lipid Peroxide Levels after administration, 4 days (pantethine 300 mg/kg): 110.8
- Blood Lipid Peroxide Levels after administration, 8 days (pantethine 300 mg/kg): 116.2
- Blood Lipid Peroxide Levels after administration, 4 days (taurine 1,000 mg/kg): 110.8
- Blood Lipid Peroxide Levels after administration, 8 days (taurine 1,000 mg/kg): 116.2

SMILES: NCCS(=O)(=O)O [Taurine alone, Taurine]
- Blood Lipid Peroxide Levels after administration, 4 days (taurine 1,000 mg/kg): 95.8
- Blood Lipid Peroxide Levels after administration, 8 days (taurine 1,000 mg/kg): 93.8
